Experimental data: patent US20240287172A1, “PROTEIN BINDERS TO IRHOM2 EPITOPES” (SCIRHOM GMBH, priority 2019, published 2024)

System: PMA-induced release of endogenous IL-6R from human U-937 cells
Experiment: ELISA-based IL-6R release assay, PMA-induced, U-937 cells
Format: cell-based
Conditions: U-937, 1 h, PMA 62.5 ng/ml, Batimastat at 10 μM
Method: In brief, on day 1, Nunc black MaxiSorp® 96-well plates (Thermo Fisher Scientific, USA) were coated overnight with 100 μl per well of mouse anti-human IL-6R capture antibody (provided as part of the DuoSet ELISA kit) at 2 μg/ml TBS at 4° C. On day 2, the capture antibody solution was removed and MaxiSorp® plates were blocked with 300 μl per well of TBS, 1% BSA at room temperature for 1-2 hours. Meanwhile, 80,000 U-937 (European Collection of Authenticated Cell Cultures, UK) cells in 80 μl of normal growth medium were seeded in each well of Greiner CELLSTAR V-bottom 96-well plates (Thermo Fisher Scientific, USA) and pre-incubated with 20 μl per well of standard growth medium supplemented with Batimastat (BB94, Abcam, UK) at 50 μM as positive control (for a final concentration of 10 μM in the resulting 100 μl sample volume), mouse IgG antibody (Thermo Fisher Scientific, USA) at 5 μg/ml as isotype control (for a final […]) at 37° C., 5% CO2 for 30 minutes. In case of stimulation controls, 20 μl of standard growth medium without test articles were added. […] Using an infinite M1000 (Tecan Group, Switzerland) microplate reader, the fluorescence of each well was collected at an excitation wavelength of 435 nm and an emission wavelength of 555 nm. […]

CNC(=O)[C@H](Cc1ccccc1)NC(=O)[C@H](CC(C)C)[C@H](CSc1cccs1)C(=O)NO [Batimastat]
inhibition at 10 µM (murine (m) and chimeric (ch) antibodies and IgG at 3 μg/ml): 91.6%
inhibition at 10 µM (recombinant murine antibodies and IgG at 1 μg/ml): 86.6%
